Data set [1] concerns TSHR-specific splenocyte proliferation. The experiment in a line: Adenoviral animal model for GD: TSHR-specific splenocyte proliferation. The settings on record: 10^9 Ad-TSHR; ATX-GD-459 15 nmol top dose; MMI 500 μg daily s.c. pump; to be interpreted with caution. The format is in vivo, DR3tg mice. How it is done:
(§1) DR3tg mice were injected subcutaneously in the flank region with 22.5 pmol, 225 pmol and 2250 pmol ATX-GD-59 or control treatment on days −15, −13 and −11 respectively, followed by 3 injections of 22.5 nmol ATX-GD-59 (top dose/peptide) or control treatment on days −8, −6 and −4 (dose escalation schedule). Alterations in top doses, and correspondingly in dose escalation doses, are indicated per experiment.
(§2) Alterations in top doses, and correspondingly in dose escalation doses, are indicated per experiment. […] New osmotic pumps were implanted after 4 weeks. […] On day 0, mice were immunized by intramuscular injection with 10^9 or 10^10 Ad-TSHR viral particles and the immunization was repeated three weeks later. […] Mice were euthanized 5 weeks after the first immunization to obtain blood, thyroid and spleen samples. TSHR-induced splenocyte proliferation, cytokine secretion and anti-TSHR antibody levels were assessed as described below.

Data set [2] deals with anti-TSHR antibodies (IgG class). Put plainly: Adenoviral animal model for GD: detection of anti-TSHR antibodies by ELISA. The format is in vivo, DR3tg mice. As for the experimental part:
as §1
Anti-TSHR antibodies (IgG class) against purified recombinant TSHR-ECD (Chesapeake-Perl) were measured using ELISA. […] The signal was developed with tetramethylbenzidine (TMB).
as §2
Anti-TSHR antibodies (IgG class) against purified recombinant TSHR-ECD (Chesapeake-Perl) were measured using ELISA. […] The signal was developed with tetramethylbenzidine.
The signal was developed with tetramethylbenzidine (TMB).
Alterations in top doses, and correspondingly in dose escalation doses, are indicated per experiment. On day 0, mice were immunised by intramuscular injection with 10^9 Ad-TSHR or Ad-LacZ viral particles and the immunisation was repeated three weeks later. Five weeks after the first immunisation, blood and spleens were collected.

The next data set has as its system Total thyroxine (T4). The experiment in a line: Detection of hyperthyroidism: total thyroxine (T4) in serum by ELISA. The format is in vivo, DR3tg mice. As for the experimental part: Total thyroxine (T4) was measured in undiluted mouse serum (10 μl) using the CBI mouse/rat thyroxine ELISA kit (Calbiotech, Spring Valley, Calif., USA) according to the manufacturer's instructions. T4 values were computed from standards in the kit and expressed as μg/dl.
as §2, with “experiment. Starting on the day of the first peptide treatment until termination of the experiment, mice were treated either MMI or propranolol.” for “experiment.”
Total thyroxine (T4) was measured in undiluted mouse serum (10 μl) using the CBI mouse/rat thyroxine ELISA kit (Calbiotech, Spring Valley, Calif., USA) according to the manufacturer's instructions. T4 values were computed from standards in the kit and expressed as μg/dl. In addition to serum T4 determinations, thyroid histology was used as a parameter for hyperthyroidism. Thyroid glands were fixed in 10% neutral buffered formalin (pH 7.5), processed to sections and stained with hematoxylin and eosin.

The nature of data set [3]: Propranolol levels in mouse plasma by LC-MSMS. The settings on record: 10 mg/kg/day IP; 60-90 minutes post-dose; weeks 0 and 5; FIG. 18. The format is in vivo, DR3tg mice. How it is done: Blood samples were collected between 60 and 90 minutes post-dose and individual plasma levels compared between W0 and W5.
The subject of data set [4] is TSHR-induced T cell proliferation. The experiment in a line: Ex vivo tolerization experiment: TSHR-induced proliferation of LN cells and splenocytes after peptide pretreatment. The format is in vivo, DR3tg mice. Particulars: vs control-treated; s.c. dose escalation schedule; top dose 5D-K1 100 μg, 9B-N 33 μg, ATX-GD-59 15 nmol/peptide; 10 days after parental peptide/CFA immunization. As for the experimental part:
DR3tg mice were injected subcutaneously in the flank region with 0.1 μg, 1 μg and 10 μg peptides on days −15, −13 and −11 respectively, followed by 3 injections of 100 μg (top dose/peptide) soluble peptide (5D-K1 or 9B-N) on days −8, −6 and −4 (dose escalation schedule). The ATX-GD-59 is an equimolar mix of the peptides 5D-K1 (SEQ ID NO:1) and 9B-N (SEQ ID NO:2) and the top dose mentioned (nmol) is per peptide in the cocktail. A peptide dose of 100 ug corresponds to ˜45 nmol as both systems been used in different experiments. The peptides were administered subcutaneous in PBS. Alterations in top doses/peptide, and correspondingly in dose escalation doses, are indicated per experiment. On day 0, the mice were immunized subcutaneously in the base of the tail with 50 μg corresponding to the parental peptide (non-modified 5D and/or 9B) emulsified in Complete Freund adjuvants (CFA; 2 mg/ml Mycobacterium tuberculosis H37RA (Difco Laboratories, Michigan, US) in Incomplete Freund adjuvant (Difco)) (50 μg peptide in 100 μL CFA (100 μg H37RA)/injection). Ten days after immunization, draining LN and spleens were harvested. LN cells and splenocytes were isolated and cultured in X-vivo 15 medium supplemented with 2 mM L-glutamine, 50 U/mL penicillin and 50 U/mL streptomycin (all Lonza, Verviers, Belgium) in 96-well flat bottom plates. To investigate antigen-induced cell proliferation, 0.5×10^6 cells/well were cultured (200 μL/well) for 72 hours with TSHR-ECD in a concentration range of 0-25 μg/mL or with 12.5 μg/mL purified protein derivative (PPD; immunisation control; Statens serum institut, Copenhagen, Denmark). After 72 hours in a 37° C. incubator with 5% CO2, 60 μL of cell supernatant was harvested and frozen. 20 μL/well of tritiated thymidine (PerkinElmer, Zaventem, Belgium) were then added to the cells to obtain a final concentration of 1 μCi/well. The cells were incubated at 37° C. and 5% CO2, and after 16 h, plates were frozen. Thawed plates were harvested and read on a β-counter (Wallac 1450 Microbeta Trilux Liquid Scintillation Counter) to assess cell proliferation.
DR3tg or DR4tg mice were injected subcutaneously in the flank region with 0.1 μg, 1 μg and 10 μg of peptide on days −15, −13 and −11 respectively, followed by 3 injections of 33, 75 or 100 μg peptide (depending on top dose, see Figure legends) on days −8, −6 and −4 (dose escalation schedule). Alterations in top doses, and correspondingly in dose escalation doses, are indicated per experiment. On day 0, the mice were immunised subcutaneously in the base of the tail with 50 μg antigen (non-modified parental 15-mer peptide) emulsified in CFA (peptide/CFA). […] Thawed plates were harvested and read with β-counter (Wallac 1450 Microbeta Trilux Liquid Scintillation Counter) to assess the cell proliferation.

Data set [5] deals with Antigen-specific T cell hybridomas with fixed or not fixed VAVY or BM14 cells (APCs). The experiment in a line: Antigen Processing Independent Presentation System (APIPS) assay. The format is cell-based. The settings on record: 25 μg/ml peptide; fixed or fresh VAVY (DR3) or BM14 (DR4) APCs; 48 h; IL-2 ELISA. How it is done:
5×10^4 T cell hybridoma clones specific for RNB-5 (clone 50+35) or RNB-4 (clone 164+455) and TSHR were cultured in presence of TSHR and RNB-5D-K1 or RNB-4K-GKK in combination with 5×10^4 human DR3 expressing antigen presenting B cells (VAVY) (clone 50) or with DR4 expressing antigen presenting B cells (BM14) (Clone 35, 164, 455). Antigen-Presenting Cells (APC) were viable or previously fixed with 0.5% paraformaldehyde prior to addition to the culture wells. After 48 h of co-culture, the supernatants were harvested and analysed by ELISA to assess levels of IL-2 secretion. Results from representative clones are presented.
Antigen-specific T cell hybridomas were tested for their reactivity to the peptides, presented by fixed or not fixed VAVY or BM14 cells (=APCs). 5×10^4 cells from the individual clones were cultured with 25 μg/ml peptide and 5×10^4 fixed or fresh APCs. To fixate APCs, cells were incubated with 0.5% paraformaldehyde (Merck, Darmstadt, Germany) (pH7) for 5 min at room temperature (RT). The fixation reaction was stopped by adding 0.4M glycine (Sigma-Aldrich) and washing the cells in RPMI-10% FCS. Additionally, reactivity towards human TSHR-ECD protein (Chesapeake-PERL, Savage, Md., USA) was measured to identify epitopes. After 48 h, antigen-induced IL-2 production was measured by ELISA.

Setting [6] is: co-medication MMI 500 μg daily + ATX-GD-459 15 nmol.

Where a name gives a salt, the structure may show the parent alone.

Turning to `Cn1cc[nH]c1=S` [MMI, methimazole], the “effect on TSHR-specific splenocyte proliferation, MMI co-medication study” value in data set [1] is on record as “significant reduction”. Further, the “effect on anti-TSHR antibody levels, MMI study” value in data set [2] (MMI 500 μg daily s.c. osmotic pump, 10^9 Ad-TSHR) is recorded as “had no effect”. Besides, in data set [2] (MMI 500 μg daily, 10^9 Ad-TSHR), the “effect on anti-TSHR IgG isotypes, MMI study” value was “had no effect”. Moreover, the “changes in anti-TSHR IgG levels, model validation” value in data set [2] (MMI 50 or 500 μg/mouse/day s.c. pump for 4 weeks, Ad-TSHR week 0 and 3) is “no changes”. Also, in data set [2] (setting [6]), the “effect on antibody reducing capability of ATX-GD-459 (IgG isotypes), MMI study” value was “did not affect” and the “influence on antibody reducing capability of ATX-GD-459 (total IgG), MMI study” value is listed as “did not influence”. Moreover, the “T4 levels, MMI 50 μg daily, model validation” value in the data set on Total thyroxine (T4) (50 μg dose) was “only showed a trend towards reduced T4 levels”. The “T4 levels, MMI 500 μg daily, model validation” value with Total thyroxine (T4) (daily dose of 500 μg, both at 2 and 4 weeks after first immunisation) is “significantly reduced”. In addition, in the data set with Total thyroxine (T4) (week 5, MMI 500 μg daily, ATX-GD-459 15 nmol top dose, 10^9 Ad-TSHR), the “effect on serum T4 levels, MMI co-medication study” value is “significantly reduced”.

With `CC(C)NCC(O)COc1cccc2ccccc12` (centres unmarked) [propranolol, Propranolol hydrochloride], the “Total T4 levels, propranolol co-medication study” value with Total thyroxine (T4) (week 5, propranolol 10 mg/kg/day IP, ATX-GD-459 15 nmol, 10^10 Ad-TSHR) is “not affected”. The “plasma levels of propranolol” value in data set [3] is “confirms pharmacological dose”.

As to “GLKMFPDLTKVYSTD (H-GLKMFPDLTKVYSTD-NH2) [Peptide 9B-N, TSHR peptide]”, in data set [4], the “reduction of TSHR-induced T cell proliferation, LN samples” value stood at 33% and the “reduction of TSHR-induced T cell proliferation, spleen samples” value was 41%.

As to “KKGNLPNISRIYVSIDVTGKK (H-KKGNLPNISRIYVSIDVTGKK-NH2) [RNB-4K-GKK, modified TSHR apitope peptide]”, the “apitope status (presentation by fixed APCs, IL-2 secretion)” value in data set [5] is recorded as “confirmed to be apitopes”.

In the case of “KKKKYVSIDVTLQQLESHKKK (H-KKKKYVSIDVTLQQLESHKKK-NH2) [Peptide 5D-K1, modified TSHR apitope peptide]”, in data set [4], the “reduction of TSHR-induced T cell proliferation, LN samples” value was determined as 60% and the “reduction of TSHR-induced T cell proliferation, spleen samples” value is given as 43%. The “apitope status (presentation by fixed APCs, IL-2 secretion)” value in data set [5] is reported as “confirmed to be apitopes”.
